The structures appear in SMILES notation. “And” between values parts separate entries of the source, which are not always exact repeats. Identical values can stand only once. Toxic doses and inconclusive results are not listed.

The results in this text go back to PubChem BioAssay AID248 (DTP/NCI, 2004).

The assay has as its system L1210 leukemia ip in BDF1 mice, survival T/C. Put plainly: NCI In Vivo Anticancer Drug Screen. Data for tumor model L1210 Leukemia (intraperitoneal) in B6D2F1 (BDF1) mice. Conditions: endpoint: mean survival time, higher = longer survival. In outline:
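Transplanted-tumor mice were given test agent; controls received vehicle only. Survival readings from the two groups were divided (treated over control).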

[1] abbreviates: dose: 100.0 mg/kg/injection, schedule: Q01DX009 (ip), vehicle: saline.
The mark [2] stands for this setting: dose: 100.0 mg/kg/injection, schedule: Q04DX003 (ip), vehicle: saline.
[3] abbreviates: dose: 200.0 mg/kg/injection, schedule: Q01DX009 (ip), vehicle: saline.
Setting [4] is: dose: 200.0 mg/kg/injection, schedule: Q04DX003 (ip), vehicle: saline.
Where [5] appears, read: dose: 400.0 mg/kg/injection, schedule: Q01DX009 (ip), vehicle: saline.
Where [6] appears, read: dose: 400.0 mg/kg/injection, schedule: Q04DX003 (ip), vehicle: saline.
[7] abbreviates: dose: 100.0 mg/kg/injection, schedule: Q01DX001 (ip), vehicle: saline.
The mark [8] stands for this setting: dose: 200.0 mg/kg/injection, schedule: Q01DX001 (ip), vehicle: saline.
[9] abbreviates: dose: 400.0 mg/kg/injection, schedule: Q01DX001 (ip), vehicle: saline.
The mark [10] stands for this setting: dose: 50.0 mg/kg/injection, schedule: Q01DX001 (ip), vehicle: saline.
The mark [11] stands for this setting: dose: 100.0 mg/kg/injection, schedule: Q01DX001 (ip), vehicle: other.
[12] abbreviates: dose: 100.0 mg/kg/injection, schedule: Q01DX001 (ip), vehicle: saline with Tween-80.
Setting [13] is: dose: 200.0 mg/kg/injection, schedule: Q01DX001 (ip), vehicle: saline with Tween-80.
[14] abbreviates: dose: 400.0 mg/kg/injection, schedule: Q04DX003 (ip), vehicle: saline with Tween-80.
Setting [15] is: dose: 100.0 mg/kg/injection, schedule: Q04DX003 (ip), vehicle: Klucel (hydroxypropylcellulose) (HPC).
[16] abbreviates: dose: 100.0 mg/kg/injection, schedule: Q04DX003 (ip), vehicle: saline with Tween-80.
Where [17] appears, read: dose: 200.0 mg/kg/injection, schedule: Q04DX003 (ip), vehicle: saline with Tween-80.

For the compound `COc1cc2ccc(CC(=O)NCc3ccccc3)cc2cc1OC`, the T/C was 94 % of control under setting [1]; 91 % of control under setting [2]; 89 % of control under setting [3]; 86 % of control under setting [4]; 101 % of control under setting [5]; 101 % of control under setting [6].
For the compound `O=C(OCCc1ccccc1)Oc1ccccc1`, the T/C under setting [1] was 115 % of control, the T/C under setting [3] was 110 % of control and the T/C under setting [5] is 103 % of control.
For the compound `COC1(C(=O)OOC(C)(C)C)CC1(c1ccccc1)c1ccccc1` (stereo not given), the T/C (dose: 50.0 mg/kg/injection, schedule: Q01DX001 (ip), vehicle: Klucel (hydroxypropylcellulose) (HPC)) is 107 % of control; the T/C (dose: 100.0 mg/kg/injection, schedule: Q01DX001 (ip), vehicle: Klucel (hydroxypropylcellulose) (HPC)) is 102 % of control; the T/C (dose: 200.0 mg/kg/injection, schedule: Q01DX001 (ip), vehicle: Klucel (hydroxypropylcellulose) (HPC)) is 100 % of control.
Take `CNC(C)=O`: the T/C under setting [7] is 100 % of control; the T/C under setting [1] is 110 % of control; the T/C (dose: 125.0 mg/kg/injection, schedule: Q01DX Z (ip), vehicle: carboxymethylcellulose (CMC)) is 86 % of control; the T/C under setting [8] is 97 % of control; the T/C under setting [3] is 107 % of control; the T/C under setting [9] was 95 % of control. Further, the T/C was 115 % of control under setting [5]; 86 % of control (dose: 500.0 mg/kg/injection, schedule: Q01DX Z (ip), vehicle: carboxymethylcellulose (CMC)); 110 % of control (dose: 1000.0 mg/kg/injection, schedule: Q01DX Z (ip), vehicle: carboxymethylcellulose (CMC)).
As to `ClCc1cccc(CCl)c1`, the T/C was 95 % of control under setting [10]; 103 % of control (dose: 50.0 mg/kg/injection, schedule: Q01DX009 (ip), vehicle: saline sonified); 95 % of control under setting [7]; 102 % of control (dose: 100.0 mg/kg/injection, schedule: Q01DX009 (ip), vehicle: saline sonified); 97 % of control under setting [8]; 103 % of control (dose: 200.0 mg/kg/injection, schedule: Q01DX009 (ip), vehicle: saline sonified).
As to `NC(N)=NC(N)=NCc1ccc(S(N)(=O)=O)cc1`, the T/C runs as follows: under setting [7], 102 % of control; under setting [1], 96 % of control; under setting [8], 94 % of control; under setting [3], 100 % of control; under setting [9], 103 % of control; under setting [5], 97 % of control.
Take `Cc1cc(NC(=O)c2ccc(C(=O)Nc3cc(C)nc4ccccc34)cc2)c2ccccc2n1`: the T/C under setting [11] is 102 % of control.
Turning to `COc1ccc(CN2CCCN(Cc3ccc(OC)cc3OC)C2c2cccnc2)c(OC)c1`, the T/C is 94 % of control under setting [10], 100 % of control under setting [7], 103 % of control under setting [8] and 100 % of control under setting [9].
On to `Cc1cc(Cl)nc2ccc(Cc3ccc(Cl)cc3)cc12`, for which the T/C under setting [7] is 97 % of control, the T/C under setting [8] was 92 % of control and the T/C under setting [9] is 93 % of control.
As to `Nc1ccnc(OCc2ccccc2)n1`, the T/C runs as follows: under setting [12], 100 % of control; under setting [13], 100 % of control.
Take `CC(=O)OC1COC(SC(=N)N)C(OC(C)=O)C1OC(C)=O` (stereo not given): the T/C is 101 % of control and 104 % of control (dose: 75.0 mg/kg/injection, schedule: Q01DX001 (ip), vehicle: water); 104 % of control and 103 % of control (dose: 150.0 mg/kg/injection, schedule: Q01DX001 (ip), vehicle: water); 97 % of control and 95 % of control (dose: 300.0 mg/kg/injection, schedule: Q01DX001 (ip), vehicle: water).
On to `CCN(CC)CCNCCCS(=O)(=O)c1ccc(NC(C)=O)cc1`, for which the T/C runs as follows: under setting [7], 97 % of control; under setting [8], 97 % of control; under setting [9], 97 % of control.
Turning to `CCOC(=O)CN1C(=O)NC2(CCc3ccccc3C2)C1=O` (stereo not given), under setting [14], the T/C was 98 % of control.
As for `COc1nn(O)cc(C)c1=NC(C)=O`, the T/C runs as follows: (dose: 12.5 mg/kg/injection, schedule: Q04DX002 (ip), vehicle: saline) 102 % of control; (dose: 25.0 mg/kg/injection, schedule: Q04DX002 (ip), vehicle: saline) 98 % of control; (dose: 50.0 mg/kg/injection, schedule: Q04DX002 (ip), vehicle: saline) 105 % of control.
As for `COC1OC(CNC(=O)N(C)N=O)C(O)C(O)C1O` (stereo not given), the T/C reads like this: under setting [2], 115 % of control; (dose: 115.0 mg/kg/injection, schedule: Q04DX003 (ip), vehicle: saline) 116 % of control; (dose: 132.0 mg/kg/injection, schedule: Q04DX003 (ip), vehicle: saline) 120 % of control; under setting [3], 150 % of control and 170 % of control; (dose: 300.0 mg/kg/injection, schedule: Q01DX009 (ip), vehicle: saline) 173 % of control; under setting [5], 166 % of control. Moreover, the T/C under setting [6] was 150 % of control and 160 % of control.
Regarding `O=[N+]([O-])c1cc([N+](=O)[O-])c2ccc(S(=O)(=O)O)cc2c1O`, the T/C (dose: 20.0 mg/kg/injection, schedule: Q01DX009 (ip), vehicle: Klucel (hydroxypropylcellulose) (HPC)) was 97 % of control; the T/C (dose: 20.0 mg/kg/injection, schedule: Q04DX003 (ip), vehicle: Klucel (hydroxypropylcellulose) (HPC)) is 110 % of control; the T/C (dose: 40.0 mg/kg/injection, schedule: Q01DX009 (ip), vehicle: Klucel (hydroxypropylcellulose) (HPC)) was 100 % of control; the T/C (dose: 40.0 mg/kg/injection, schedule: Q04DX003 (ip), vehicle: Klucel (hydroxypropylcellulose) (HPC)) was 109 % of control; the T/C (dose: 80.0 mg/kg/injection, schedule: Q01DX009 (ip), vehicle: Klucel (hydroxypropylcellulose) (HPC)) is 103 % of control; the T/C (dose: 80.0 mg/kg/injection, schedule: Q04DX003 (ip), vehicle: Klucel (hydroxypropylcellulose) (HPC)) was 105 % of control. Further, the T/C under setting [15] is 106 % of control.
Regarding `O=C1CC[C@H](NC(=O)OCc2ccccc2)C(=O)O1`, the T/C by setting is: under setting [16], 100 % of control; under setting [17], 100 % of control; under setting [14], 97 % of control.
With `Nc1ccc2nc(NCCCO)c3ccccc3c2c1`, the T/C is, setting by setting: under setting [15], 107 % of control; (dose: 200.0 mg/kg/injection, schedule: Q04DX003 (ip), vehicle: Klucel (hydroxypropylcellulose) (HPC)) 113 % of control; (dose: 400.0 mg/kg/injection, schedule: Q04DX003 (ip), vehicle: Klucel (hydroxypropylcellulose) (HPC)) 102 % of control.
As for `CC/C(C)=N/Nc1ccc([N+](=O)[O-])cc1[N+](=O)[O-]`, the T/C by setting is: under setting [11], 94 % of control; (dose: 200.0 mg/kg/injection, schedule: Q01DX001 (ip), vehicle: other) 94 % of control; (dose: 400.0 mg/kg/injection, schedule: Q01DX001 (ip), vehicle: other) 97 % of control.
Turning to `O=c1[nH]cnc2c1ncn2Cc1ccccc1`, the T/C under setting [12] was 104 % of control; the T/C under setting [13] is 102 % of control; the T/C (dose: 400.0 mg/kg/injection, schedule: Q01DX001 (ip), vehicle: saline with Tween-80) is 96 % of control.
Take `CCOC(=O)C/C(C)=N/N=C(\CCOC)COC`: the T/C is 87 % of control (dose: 100.0 mg/kg/injection, schedule: Q01DX001 (ip), vehicle: carboxymethylcellulose (CMC)); 103 % of control (dose: 200.0 mg/kg/injection, schedule: Q01DX001 (ip), vehicle: carboxymethylcellulose (CMC)); 103 % of control (dose: 400.0 mg/kg/injection, schedule: Q01DX001 (ip), vehicle: carboxymethylcellulose (CMC)).
On to `CCCCNC(=O)OCC(C)(CCC)COC(N)=O` (stereo not given), for which the T/C is 101 % of control (dose: 25.0 mg/kg/injection, schedule: Q01DX009 (ip), vehicle: saline); 95 % of control (dose: 25.0 mg/kg/injection, schedule: Q04DX003 (ip), vehicle: saline); 101 % of control (dose: 50.0 mg/kg/injection, schedule: Q01DX009 (ip), vehicle: saline); 95 % of control (dose: 50.0 mg/kg/injection, schedule: Q04DX003 (ip), vehicle: saline); 109 % of control under setting [1]; 101 % of control under setting [2]. The T/C runs as follows: under setting [3], 104 % of control; under setting [4], 95 % of control; under setting [5], 103 % of control; under setting [6], 95 % of control.
Consider `NC(=O)c1nnc(-c2ccc(Cl)cc2)[nH]c1=O`, for which the T/C under setting [16] is 98 % of control, the T/C under setting [17] was 98 % of control and the T/C under setting [14] was 98 % of control.
